“Also recorded” adds a separate entry of the source.

Experimental findings from patent US9513294B2, “Megastokes amino-triazolyl-BODIPY compounds and applications to live neuron staining and human serum albumin FA1 drug site probing” (National University of Singapore, priority 2012, dated 2016) are described below.

Data set [1] relates to serum albumins from rat (RSA), porcine (PSA), rabbit (RbSA), sheep (SSA) and bovine (BSA). The data set can be described thus: Species selectivity: fluorescence response to serum albumins of different species. The class given is binding. Particulars: 10 μM, albumins 1.2×10^−4 to 4 mg/mL. The procedure:
FIGS. 7a and 7b show species selectivity of BDC-9. […] FIG. 7b is a photographic image of BDC-9 (10 μM) mixed with respective albumins. Irradiation with a handheld UV lamp at 365 nm.
The selectivity of BDC-9 towards serum albumins from different species was investigated. Serum albumins represent a family of proteins with a high degree of similarity in their primary sequence across various species (˜75% homology) (34,39,40,62). […] The fluorescence response of BDC-9 was evaluated against serial concentrations of serum albumins from rat (RSA), porcine (PSA), rabbit (RbSA), sheep (SSA) and bovine (BSA).

The target in another data set is HSA (fatty-acid free) (Homo sapiens, UniProt P02768). The data set can be described thus: Competition with site-selective HSA-binding drugs. Particulars: from competition assays. The procedure:
HSA (fatty-acid free) (0.34 mg/mL, 5 μM) was preincubated for 2 h in phosphate buffer with different concentrations of the drugs (up to 200 μM) before BDC-9 (10 μM) was added. F is the fluorescence intensity at the indicated drug concentration and F0 is the fluorescence intensity with no drug added; λexc.: 460 nm, λem.: 575 nm; values are represented as means and error bars as standard deviations (n=3).
The binding properties of BDC-9 were studied. HSA consists of at least nine binding sites (34-38), amongst which fatty acid (FA) sites 1, 3 and 4 (Sudlow Site II), 5, 6 and 7 (Sudlow Site I) are known to have affinity for drug compounds (31,39-44). […] To verify specific binding and determine the binding site(s) of BDC-9 in HSA, competition assays using drugs binding to the respective sites (e.g. hemin (FA1 site)(71,72), dansyl-L-norvaline (FA3/4 sites) (73), propofol (FA3/4 and FA5 sites) (35), ibuprofen (FA3/4 and FA6 sites) (74) and warfarin (FA7 site) (74) were performed (75).
There have been several reports of fluorescent dyes binding to FA3/4 (48,49,73), FA6 (51) and FA7 (54,55,76) sites. The present invention represents the first known experimentally proven fluorescent dye binding to the FA1 site (76), in which binding is not dependent on contact with bound lipid (72). BDC-9 is therefore a valuable probe for examining the heme region on HSA.

In data set [2] the target is T1, HSA (Homo sapiens, UniProt P02768). The data set can be described thus: Fluorescence response to serial dilutions of HSA. The class given is binding. As for the experimental part:
Values are represented as means (n=3).
Mixtures of BDC-9 with HSA were prepared in phosphate buffer (pH 7.3, 1% DMSO) at room temperature and fluorescence measurements were taken after incubation for 2 h unless otherwise stated.

Data set [3] can be described thus: Effect of solvent viscosity on fluorescence intensity (molecular rotor). Type of data set: physicochemical. Particulars: 100 μM, rt, solvents of similar polarity. As for the experimental part:
The fluorescence spectra of compound (BDC-9) in different solvents of similar polarities but covering a range of viscosities were analyzed. […] Increased solvent viscosity reduces bond rotation at positions 3 and 5 of the BODIPY core, which, without being bound to theory, minimizes non-radiative energy loss and leads to higher quantum yields (24).

The nature of data set [4]: Quantum yield measurements versus Acridine Yellow in EtOH. Type of data set: physicochemical. The method, boiled down:
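Emission areas integrated over 510–700 nm were compared with Acridine Yellow in ethanol (Φ=0.47), all excited at 460 nm. The comparative equation was normalized to excitation-wavelength absorbance and solvent refractive index.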

Data set [5] has as its target T1, HSA. The data set can be described thus: Quantification of HSA in spiked urine samples. The note with it: urine spiked with HSA up to 1 mg/mL. The procedure:
HSA (0 to 1 mg/mL) was added to 10% urine from healthy individuals in phosphate buffer (pH=7.3). BDC-9 was added at 10 μM concentration; λexc.: 460 nm, λem.: 575 nm; values represented as means (n=3) and error bars as standard deviations; linear regression: R^2=0.998.
In order to examine the selectivity and sensitivity of BDC-9 in complex matrices, BDC-9 was utilized to quantify the amount of HSA in urine samples. Microalbuminuria, which involves an albumin excretion rate of 15 to 40 μg/mL (80, 81), is a well-established cardiovascular risk marker and an indication of liver and renal disease (32,33). The fluorescence response of BDC-9 was analyzed in urine that was spiked with different amounts of HSA, up to 1 mg/mL.

Data set [6] in a line: Absorbance and fluorescence emission spectra (SpectraMax M2). The class given is physicochemical. The method, boiled down: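 Spectroscopic data, including quantum yields, were recorded with a SpectraMax M2 instrument and analysed in GraphPrism.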
The target of data set [7] is T1, HSA. The data set can be described thus: Determination of dissociation constant with HSA (fluorescence titration, one-site model). The note with it: HSA 10 μM, one-site specific binding model. The procedure: HSA (10 μM) was titrated against serial concentrations of BDC-9 (0.47 to 60 μM) and the fluorescence intensities were measured at 575 nm (λexc=460 nm). The fluorescence intensity of bound BDC-9 at each concentration was determined using the equation:
[formula] where F and F0 are the fluorescence intensities of a given concentration of BDC-9 with and without HSA respectively. Fsat is the fluorescence intensity at the same concentration of BDC-9 when fully bound.

Another data set concerns the target human serum albumin (Homo sapiens, UniProt P02768). As to the kind of experiment: In vitro fluorescence screening against 84 biologically relevant analytes / 16 proteins. The class given is binding. The note with it: 10 μM, 10 mM HEPES pH 7.4, 1% DMSO. The procedure:
F0 is the fluorescence intensity of BDC-9 in HEPES buffer. Values are represented as means (n=4).
Amino-triazolyl-BODIPYs (10 μM) were screened in 10 mM HEPES buffer, pH 7.4, containing 1% DMSO. Fluorescence intensities were measured using a SpectraMax M2 platereader in 384-well plates. Excitation was provided at each compound's excitation range, and emission spectrum was obtained starting from at least 30 nm beyond the excitation wavelength. All the analytes were tested at four serial concentrations.
The fluorescent response of BDC, BDCAC and BDCCA was examined against 84 biologically relevant analytes that were categorized into nine different sets (i.e. pH standards, viscous solutions, genetic macromolecules, peptides, metal ions, redox molecules, nucleic acids, proteins and other metabolites).

The subject of data set [8] is primary neurons. As to the kind of experiment: Primary brain cell screening platform (neurons, astrocytes, microglia). Type of data set: cell-based. The note with it: 500 nM, 1 hour. The source says: Esterification to MKAA (and possibly other esters) improves permeability into intact live cells while maintaining staining specificity (FIG. 12). The acetylated MKAA undergoes rapid hydrolysis by cellular esterases after crossing the live cell membrane generates the active MKHA compound responsible for the fluorescence response. FIGS. 13 and 14 show the structures of example MKHA compounds that have been synthesized and tested for primary neuron staining.
For neuron probe discovery, a primary brain cell screening platform was utilized, which involved the use of primary neurons, astrocytes and microglia isolated by differential adhesion methods. These cells were prepared alongside one another in 384-well microplates and incubated in duplicate with 5,000 DOFL compounds at 500 nM concentrations for 1 hour at 4-5 days post-isolation (FIG. 15). […] The compound MKHA374-48 is alternately referred to herein as NeuO (pronounced “neo”) for Neuron Orange.

In another data set the test system is live neurons. The data set can be described thus: Live cell compound staining and immunostaining of mixed primary neural cell cultures. Type of data set: cell-based, mouse. Particulars: 500 nM, brain cell preparations from P1-P3 mice. As for the experimental part: Cells were stained with 500 nM of MKHA101-3 (Green) and imaged at 10× magnification before fixing with 4% PFA. They were then permeabilized with 0.1% Triton-X and immunostained with GFAP (Red) and neurons (Green).
Cells were stained with 500 nM of NeuO (Green) and imaged at 10× magnification before fixing with 4% PFA. They were then permeabilized with 0.1% Triton-X and immunostained with β-III-tubulin (Tuji, Yellow), GFAP (Red) and O4).
Using the heterogeneous brain cell preparations from P1-P3 mice, cells that were compound positive were also found to be β-III-tubulin positive (FIG. 17).
Using the heterogeneous brain cell preparations from P1-P3 mice, cells that were compound positive were also found to be β-III-tubulin (Tuji) positive (FIG. 18a). […] NeuO appears to stain all neurons regardless of subtype (FIG. 18b).

The subject of data set [9] is mixed primary neural cell populations. The data set can be described thus: Flow cytometry analysis and FACS sorting of mixed primary neural cells. Type of data set: cell-based, mouse. The source says: Unstained controls are shown in each spectrum from about 0 to about 1 G.
To further analyze this population of compound positive cells, the two populations (Bright and Dim) were sorted out cell re-culture and RNA extraction for gene analysis.
A general note: Flow cytometry measures light scatter and fluorescence of single cells or particles in a stream.

The test system of a further data set is neurons. The data set can be described thus: Time lapse imaging of in vitro neuronal development. The class given is cell-based, mouse. The note with it: 500 nM. The source says:
The survival of the cells and dye signal is critical in time lapse studies to analyze neuronal development and interaction with other neural cells.

For data set [10], the system named is primary neurons. As to the kind of experiment: Neuron viability, MTS cell cytotoxicity assay (Promega). Type of data set: cell-based, mouse. The note with it: 24 hour incubation, 500 nM or higher. The procedure:
Primary neurons were isolated from P1-3 mouse pups by preferential adherence to poly-D-lysine coating. They were left to mature for 5 days before addition of compound at the stipulated concentrations for 24 h. The MTS assay (Promega) was used to assess viability according to manufacturer's instructions.
For long term tracking and downstream functional studies, it is critical that the compound is not cytotoxic towards the cells and that cells remain viable after staining.
(In general: Formazan colour is commonly taken as a measure of viable cells.)

T1 sequence (P02768 25-609): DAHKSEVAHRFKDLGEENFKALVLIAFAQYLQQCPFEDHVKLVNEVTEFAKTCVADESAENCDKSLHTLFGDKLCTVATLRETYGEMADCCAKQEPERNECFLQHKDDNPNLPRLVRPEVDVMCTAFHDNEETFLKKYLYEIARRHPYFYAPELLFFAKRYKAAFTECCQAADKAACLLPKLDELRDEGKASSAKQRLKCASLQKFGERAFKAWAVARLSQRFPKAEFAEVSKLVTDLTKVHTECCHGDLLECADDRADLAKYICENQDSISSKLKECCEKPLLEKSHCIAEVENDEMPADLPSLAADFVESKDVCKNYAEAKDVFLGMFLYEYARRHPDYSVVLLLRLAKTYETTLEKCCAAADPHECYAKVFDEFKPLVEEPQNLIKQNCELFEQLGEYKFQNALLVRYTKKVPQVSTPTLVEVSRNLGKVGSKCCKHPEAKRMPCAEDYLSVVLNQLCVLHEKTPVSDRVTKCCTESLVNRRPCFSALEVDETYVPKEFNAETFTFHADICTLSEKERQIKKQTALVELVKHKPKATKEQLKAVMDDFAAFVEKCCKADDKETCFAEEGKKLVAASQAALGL
human serum albumin, sequence (P02768 25-609): as above
HSA (fatty-acid free), sequence (P02768 25-609): as above

Usually Kd stands for the concentration at which binding is half-saturated. High values mean lower affinity, low ones higher affinity. Regarding `Nc1ccc(C2=C3C=CC(N4CCCCC4)=[N+]3[B-](F)(F)n3c2ccc3-n2cc(-c3ccccc3)nn2)cc1` [BDC-9, 10-(4-aminophenyl)-5,5-difluoro-7-(4-phenyl-1H-1,2,3-triazol-1-yl)-3-(piperidin-1-yl)-5H-dipyrrolo[1,2-c:2′,1′-f][1,3,2]diazaborinin-4-ium-5-uide], the “selectivity towards HSA versus serum albumins from other species” value in data set [1] is reported as “marked selectivity towards HSA with marginal response on the other species”. The “binding site on HSA” value at HSA (fatty-acid free) is “binding to the FA1 site (heme site) of HSA”. Further, the “increase in fluorescence upon binding to HSA” value on HSA [2] (10 μM, phosphate buffer, λexc 460 nm) was 220 fold. Also, the “limit of detection of HSA” value on HSA [2] (S/N=3) was determined as 0.3 µg/mL. Moreover, the “fluorescence intensity versus solvent viscosity” value in [3] is “systematically increased in more viscous alcohols; also recorded: strong correlation between fluorescence intensity and viscosity”. For the same compound, the “φ (quantum yield)” value in data set [4] (BDC library, Table 2, excitation 460 nm) is listed as 0.22%. Also, the “correlation between fluorescence response and amount of HSA in urine” value on HSA [5] is on record as “excellent linear correlation”. In data set [6] (BDC library, Table 2), the “λmax Absorp.” value stood at 472 nm and the “λmax Emission” value turned out to be 581 nm. Moreover, at HSA [7], the Kd is 12.7 ± 0.4 µM. Also, on human serum albumin, the “selectivity of fluorescence response among proteins and analytes” value is listed as “remarkable selectivity towards human serum albumin”.
With `CCCc1cn(C2=[N+]3C(=C(c4ccc(NC(=O)CO)cc4)c4ccc(NCc5ccccc5)n4[B-]3(F)F)C=C2)nn1` [MKHA374-48, 7-(benzylamino)-5,5-difluoro-10-(4-(2-hydroxyacetamido)phenyl)-3-(4-propyl-1H-1,2,3-triazol-1-yl)-5H-dipyrrolo[1,2-c:2′,1′-][1,3,2]diazaborinin-4-ium-5-uide], the “fluorescence response / selectivity towards primary neurons in screening” value with primary neurons [8] is on record as “superior selectivity towards live neurons compared to the original MKHA101-3”. In the data set on live neurons, the “staining specificity for neurons over other neural cells” value was “stains the cell bodies and dendrites specifically over other neural cells”. Also, in data set [9], the “flow cytometry profile of stained mixed neural cell populations” value is “neuronal population segregating from the main population”. Besides, the “time lapse imaging of stained neurons” value with neurons is given as “Bright NeuO stained neurons can be seen migrating from the interior of the sphere”. The “effect on cell viability” value with primary neurons [10] is “did not affect cell viability significantly”. Also, the “φ (%)” value in [4] (MKHA compounds, quantum yield) stood at 0.3684%. In addition, in data set [6] (FIG. 2 normalized spectra), the “absorbance λmax” value was found to be 468 nm and the “emission λmax” value is on record as 557 nm. Besides, in data set [6] (MKHA compounds, absorbance maximum), the “λmax Absorp. (nm)” value was determined as 468 nm. The “λmax Emission (nm)” value in [6] (MKHA compounds, fluorescence emission maximum) is reported as 557 nm.
